The results in this text go back to patent US10624871B2, “Bismuth(III) compounds and methods thereof” (priority 2016, dated 2020).

By IC50 is commonly meant the concentration that inhibits the measured activity by half. A high value points to lower potency.

Series [1] addresses NDM-1 (Klebsiella pneumoniae, UniProt C7C422). The experiment in a line: IC50 enzyme inhibition assay, MER hydrolysis. Type of series: biochemical. To be noted: Zn2-NDM-1 50 nM, 1 h preincubation at 25° C., 100 μM MER. From the text: (§1) […]. The initial rate were extracted and calculated from each reaction curves.
Series [2] has as its target VIM-2 (Escherichia coli, UniProt Q5U7L7). The experiment in a line: IC50 enzyme inhibition assay, MER hydrolysis. The series is classed as biochemical. Conditions: Zn2-VIM-2, 1 h preincubation at 25° C., 100 μM MER.
Excerpt: as §1

Series [3] deals with C. freundii (NDM-1+). The series can be described thus: Microdilution MIC and MBC assay, FICI. Type of series: cell-based.
Series [4] concerns E. coli (VIM-2+). The experiment in a line: Microdilution MIC and MBC assay, FICI. Type of series: cell-based.
The test system of series [5] is E. coli (NDM-1+). The series can be described thus: Microdilution MIC and MBC assay, checkerboard FICI. The series is classed as cell-based. Conditions: for MBC of MER with Bi(III) compound / MIC of MER with Bi(III) compound: Bi(III) compound at 32 μg mL^−1, E. coli (NDM-1+); for FIC Index: MER with Bi(III) compound, E. coli (NDM-1+).
Series [6] deals with E. coli (IMP-4+). The experiment in a line: Microdilution MIC and MBC assay, FICI. The series is classed as cell-based. A general note: Dilution methods test growth across graded concentrations, often in twofold steps.
Series [7] deals with K. pneumonia (NDM-1+). The series can be described thus: Microdilution MIC and MBC assay, FICI. The series is classed as cell-based. To be noted: for MBC of MER with Bi(III) compound / MIC of MER with Bi(III) compound: Bi(III) compound at 32 μg mL^−1, K. pneumonia (NDM-1+); for FIC Index: MER with Bi(III) compound, K. pneumonia (NDM-1+).
Series [8] can be described thus: Solubility of the bismuth complexes (Table 1). To be noted: solvent named, or insoluble.
Where [9] appears, read: Bi(III) compound at 32 μg mL^−1, C. feudii (NDM-1+).
The mark [10] stands for this setting: Bi(III) compound at 32 μg mL−1, E. coli (VIM-2+).
Setting [11] is: Bi(III) compound at 32 μg mL−1, E. coli (IMP-4+).

Chain of NDM-1 (C7C422 whole entry, looked up): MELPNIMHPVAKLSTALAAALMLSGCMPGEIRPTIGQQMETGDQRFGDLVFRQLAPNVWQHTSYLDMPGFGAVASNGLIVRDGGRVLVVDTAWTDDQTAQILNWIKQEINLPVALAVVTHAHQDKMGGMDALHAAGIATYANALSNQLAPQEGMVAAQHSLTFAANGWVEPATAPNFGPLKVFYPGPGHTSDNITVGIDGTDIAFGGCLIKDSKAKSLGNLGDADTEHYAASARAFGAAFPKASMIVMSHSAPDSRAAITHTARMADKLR

For `O=[N+]([O-])[O][Bi]([O][N+](=O)[O-])[O][N+](=O)[O-]` [Bi(NO3)3], the concentration for half-maximal inhibition (IC50) in series [1] came out at 1.89 ± 0.23 µM; in series [2] it was 2.45 ± 0.63 µM. Moreover, the “MBC of MER with Bi(III) compound” value was found to be 4 µg/mL in series [3] (setting [9]); 2 µg/mL in series [4] (setting [10]); 4 µg/mL in series [5]; 8 µg/mL in series [6] (setting [11]); 1 µg/mL in series [7]. Further, the “MIC of MER with Bi(III) compound” value in series [3] (setting [9]) was 2 µg/mL; in series [4] (setting [10]), 1 µg/mL; in series [5], 2 µg/mL; in series [6] (setting [11]) it was 4 µg/mL; in series [7], 1 µg/mL. Moreover, the “FIC Index” value in series [3] (MER with Bi(III) compound, C. freundii (NDM-1+)) is listed as 0.375; in series [4] (MER with Bi(III) compound, E. coli (VIM-2+)), 0.063; in series [5] it was 0.266; in series [6] (MER with Bi(III) compound, E. coli (IMP-4+)), 0.313; in series [7], 0.125.

Take `C1=CC2=C(c3ccccc3)c3ccc4[n]3[Bi+][n]3c(ccc3=C(c3ccccc3)C3=NC(=C4c4ccccc4)C=C3)=C(c3ccccc3)C1=N2` [Complex 1]: in series [5], the “MBC of MER with Bi(III) compound” value came to 8 µg/mL, the “MIC of MER with Bi(III) compound” value is 4 µg/mL and the “FIC Index” value was 0.266. In series [7], the “MBC of MER with Bi(III) compound” value stood at 16 µg/mL, the “MIC of MER with Bi(III) compound” value came to 4 µg/mL and the “FIC Index” value came to 0.375.

With `O=C(O)c1ccccc1[S-].O=C([O-])c1ccccc1[S-].[Bi+3]` [Complex 7], in series [5], the “MBC of MER with Bi(III) compound” value came out at 2 µg/mL, the “MIC of MER with Bi(III) compound” value turned out to be 1 µg/mL and the “FIC Index” value was found to be 0.250. In addition, in series [8], the Solubility entry is reported as “DMSO”.

On to `O.O.O=C([O-])CN(CC(=O)[O-])CC(=O)[O-].[Bi+3]` [Complex 11], for which, in series [5], the “MBC of MER with Bi(III) compound” value was determined as 8 µg/mL and the “MIC of MER with Bi(III) compound” value was 4 µg/mL.

With `[Bi+3].[O-]c1c([O-])c(Br)c(Br)c(Br)c1Br.[O-]c1c([O-])c(Br)c(Br)c(Br)c1Br` [Complex 13], in series [5], the “MBC of MER with Bi(III) compound” value is 2 µg/mL, the “MIC of MER with Bi(III) compound” value came to 1 µg/mL and the “FIC Index” value is reported as 0.250. The Solubility entry in series [8] is recorded as “DMSO”.

As to `O=[N+]([O-])[O-].O=[N+]([O-])[O-].[Bi+3].c1ccc(-c2ccccn2)nc1.c1ccc(-c2ccccn2)nc1` [Complex 16], in series [5], the “MBC of MER with Bi(III) compound” value was 8 µg/mL and the “MIC of MER with Bi(III) compound” value was 2 µg/mL.

Take `NCC(=O)[O-].NCC(=O)[O-].NCC(=O)[O-].[Bi+3]` [Complex 18]: in series [5], the “MBC of MER with Bi(III) compound” value was found to be 16 µg/mL and the “MIC of MER with Bi(III) compound” value came out at 8 µg/mL.

As to `CNC(=C[N+](=O)[O-])NCCSCc1ccc(CN(C)C)o1.O=C([O-])CC(O)(CC(=O)[O-])C(=O)[O-].[Bi+3]` [RBC, ranitidine bismuth citrate], in series [5], the “MBC of MER with Bi(III) compound” value worked out at 4 µg/mL and the “MIC of MER with Bi(III) compound” value was determined as 2 µg/mL.

Consider bismuth subgallate [Complex 14], for which, in series [5], the “MBC of MER with Bi(III) compound” value was found to be 8 µg/mL, the “MIC of MER with Bi(III) compound” value was found to be 4 µg/mL and the “FIC Index” value is reported as 0.375. In series [8], the Solubility entry is recorded as “Insoluble”.
